Reference: publication PMC11502502 (Nature cancer, 2024)
pIC50: −log10 of the molar value. Read-outs that look alike come from different tables or passages of the source.

What was measured:
A-431 = test: CellTiter-Glo cell viability, A-431; type: cell-based; settings: Homo sapiens, A-431, 72 h
RPMI 8226 = test: CellTiter-Glo cell viability, RPMI 8226; type: cell-based; settings: Homo sapiens, RPMI-8226, 72 h
HMC1–8 = test: CellTiter-Glo cell viability, HMC1–8; type: cell-based; settings: Homo sapiens, 72 h
SNU-16 = test: CellTiter-Glo cell viability, SNU-16; type: cell-based; settings: Homo sapiens, SNU-16, 72 h
KMS-12-BM = test: CellTiter-Glo cell viability, KMS-12-BM; type: cell-based; settings: Homo sapiens, 72 h
A-427 = test: CellTiter-Glo cell viability, A-427; type: cell-based; settings: Homo sapiens, A-427, 72 h
SU-DHL-5 = test: CellTiter-Glo cell viability, SU-DHL-5; type: cell-based; settings: Homo sapiens, SU-DHL-5, 72 h
KMS-12-PE = test: CellTiter-Glo cell viability, KMS-12-PE; type: cell-based; settings: Homo sapiens, 72 h
SNU398 = test: CellTiter-Glo cell viability, SNU398; type: cell-based; settings: Homo sapiens, SNU-398, 72 h
DMS114 = test: CellTiter-Glo cell viability, DMS114; type: cell-based; settings: Homo sapiens, DMS-114, 72 h
OPM-2 = test: CellTiter-Glo cell viability, OPM-2; type: cell-based; settings: Homo sapiens, OPM-2, 72 h
MOLP-8 = test: CellTiter-Glo cell viability, MOLP-8; type: cell-based; settings: Homo sapiens, MOLP-8, 72 h
NCI-H82 = test: CellTiter-Glo cell viability, NCI-H82; type: cell-based; settings: Homo sapiens, NCI-H82, 72 h
HCC-1187 = test: CellTiter-Glo cell viability, HCC-1187; type: cell-based; settings: Homo sapiens, HCC1187, 72 h
HCC-2157 = test: CellTiter-Glo cell viability, HCC-2157; type: cell-based; settings: Homo sapiens, HCC2157, 72 h
PA-1 = test: CellTiter-Glo cell viability, PA-1; type: cell-based; settings: Homo sapiens, PA-1, 72 h
AMO-1 = test: CellTiter-Glo cell viability, AMO-1; type: cell-based; settings: Homo sapiens, AMO1, 72 h
[1] = Protein-binding assay with equilibrium dialysis in cell culture medium; type: in vitro ADME; settings: bovine, cell culture medium with 10% fetal calf serum
JJN-3 = test: CellTiter-Glo cell viability, JJN-3; type: cell-based; settings: Homo sapiens, JJN-3, 72 h
[2] = read-out: Anti-proliferative IC50
[3] = read-out: Antiproliferative IC50u

- pIC50 (A-431; [2]): 6.66
- pIC50 (A-431; [3]): 8.34
- pIC50 (SNU-16; [2]): 6.57
- pIC50 (SNU-16; [3]): 8.25
- pIC50 (SU-DHL-5; [2]): 7.85
- pIC50 (SU-DHL-5; [3]): 9.52
- pIC50 (SNU398; [2]): 7.28
- pIC50 (SNU398; [3]): 8.96
- pIC50 (NCI-H82; [2]): 6.79
- pIC50 (NCI-H82; [3]): 8.47
- pIC50 (HCC-1187; [2]): 7.28
- pIC50 (HCC-1187; [3]): 8.96
- pIC50 (HCC-2157; [2]): 7.02
- pIC50 (HCC-2157; [3]): 8.70
- fraction unbound [1]: 0.021
SMILES: Cc1c2c(nn1C)CSCc1cc(n(C)n1)CSc1cc(c3ccccc3c1)OCCCc1c(C(=O)O)n(C)c3c-2c(Cl)ccc13 [AZD5991]
- pIC50 (RPMI 8226; [2]): 7.21
- pIC50 (RPMI 8226; [3]): 8.89
- pIC50 (HMC1–8; [2]): 6.48
- pIC50 (HMC1–8; [3]): 8.16
- pIC50 (KMS-12-BM; [2]): 7.48
- pIC50 (KMS-12-BM; [3]): 9.15
- pIC50 (A-427; [2]): 7.28
- pIC50 (A-427; [3]): 8.96
- pIC50 (KMS-12-PE; [2]): 6.68
- pIC50 (KMS-12-PE; [3]): 8.36
- pIC50 (DMS114; [2]): 7.15
- pIC50 (DMS114; [3]): 8.82
- pIC50 (OPM-2; [2]): 7.48
- pIC50 (OPM-2; [3]): 9.15
- pIC50 (MOLP-8; [2]): 7.42
- pIC50 (MOLP-8; [3]): 9.10
- pIC50 (PA-1; [2]): 6.98
- pIC50 (PA-1; [3]): 8.66
- pIC50 (AMO-1; [2]): 7.24
- pIC50 (AMO-1; [3]): 8.92
- pIC50 (JJN-3; [2]): 7.15
- pIC50 (JJN-3; [3]): 8.82
